Measured values as given in patent EP0519427A2, “N-substituted-3-iodopropiolamide, production and use thereof” (priority 1991, dated 1992).
Like-named read-outs stand apart in the source and are kept apart here.

Legend:
Test in all cases: Antibacterial and antifungal activity, paper disc method
Format in all cases: cell-based
[1] = tested on: Aspergillus niger IFO-4407
Procedure: (§1) Antibacterial and antifungal activity tests for various bacteria and fungi were conducted. The tests were carried out by the conventional paper disc method. That is, a paper disc (d=8 mm) was dipped in aqueous or methanol solution of the compound of the present invention (concentration : 1,000 µg/ml), then dried and used.
(§2) As bacteria to be tested, • ① Staphylococcus aureus IFO-12732 [hereinafter abbreviated to Sta.] • ② Bacillus subtilis IFO-13719 [Bac.] • ③ Escherichia coli IFO-3301 [Esc.] were used. As yeast to be tested, • ④ Saccharomyces cerevisiae IFO-0210 [Sac.] • ⑤ Candida albicans IFO-0583 [Can.] were used. As fungi to be tested, • ⑥ Aspergillus niger IFO-4407 [Asp.] • ⑦ Penicillium citrinum IFO-7784 [Pen.] • ⑧ Tyromyces palustris IFO-30339 [Tyr.] • ⑨ Coriolus versicolor IFO-30340 [Cor.] were used. Among the above fungi, Tyr. and Cor. are wood rot fungi.
(§3) As the test media, agar media shown below were used. That is, TSA (Trypticase Soy Agar) medium was used for Sta., Bac. and Esc.; YNB (Yeast Nitrogen Base) agar medium was used for Sac. and Can.; SDA (Sabouraud Dextrose Agar) medium was used for Asp. and Pen.; and PDA (Potato Dextrose Agar) medium was used for Try. and Cor.
(§4) The determination of antibacterial and antifungal effectiveness was carried out by measuring the diameter of the growth inhibition circle generated on the circumference of the paper disc. The indication of effectiveness is given as follows: -: no growth inhibition circle was observed. +: diameter of the growth inhibition circle was 9 - 20 mm ++: diameter of the growth inhibition circle was 21 - 40 mm +++: diameter of the growth inhibition circle was 41 mm or more

[2] = tested on: Bacillus subtilis IFO-13719; settings: Bacillus subtilis
Procedure: as §1, §2, §3, §4

[3] = tested on: Candida albicans IFO-0583
Procedure: as §1, §2, §3, §4

[4] = tested on: Coriolus versicolor IFO-30340; settings: Trametes versicolor
Procedure: as §1, §2, §3, §4

[5] = tested on: Escherichia coli IFO-3301; settings: for zone of inhibition at 1000 µg/mL: Escherichia coli
Procedure: as §1, §2, §3, §4

[6] = tested on: Penicillium citrinum IFO-7784
Procedure: as §1, §2, §3, §4

[7] = tested on: Saccharomyces cerevisiae IFO-0210
Procedure: as §1, §2, §3, §4

[8] = tested on: Staphylococcus aureus IFO-12732
Procedure: as §1, §2, §3, §4

[9] = tested on: Tyromyces palustris IFO-30339; settings: read-out: diameter of the growth inhibition circle, Tyr.(IFO-30339)
Procedure: as §1, §2, §3, §4

[10] = IFO4407, paper disc d=8 mm dipped in 1,000 µg/ml solution, SDA medium, read-out: diameter of the growth inhibition circle, Asp.(IFO-4407)
[11] = IFO13719, paper disc d=8 mm dipped in 1,000 µg/ml solution, TSA medium, read-out: diameter of the growth inhibition circle, Bac.(IFO-13719)
[12] = IFO0583, paper disc d=8 mm dipped in 1,000 µg/ml solution, YNB agar medium, read-out: diameter of the growth inhibition circle, Can.(IFO-0583)
[13] = IFO30340, paper disc d=8 mm dipped in 1,000 µg/ml solution, PDA medium, read-out: diameter of the growth inhibition circle, Cor.(IFO-30340)
[14] = IFO3301, paper disc d=8 mm dipped in 1,000 µg/ml solution, TSA medium, read-out: diameter of the growth inhibition circle, Esc.(IFO-3301)
[15] = IFO7784, paper disc d=8 mm dipped in 1,000 µg/ml solution, SDA medium, read-out: diameter of the growth inhibition circle, Pen.(IFO-7784)
[16] = IFO0210, paper disc d=8 mm dipped in 1,000 µg/ml solution, YNB agar medium, read-out: diameter of the growth inhibition circle, Sac.(IFO-0210)
[17] = IFO12732, paper disc d=8 mm dipped in 1,000 µg/ml solution, TSA medium, read-out: diameter of the growth inhibition circle, Sta.(IFO-12732)
[18] = paper disc d=8 mm dipped in 1,000 µg/ml solution, PDA medium
[19] = paper disc d=8 mm dipped in 1,000 µg/ml solution, TSA medium

| Structure (SMILES) | zone of inhibition at 1000 µg/mL [1, 10] | zone of inhibition at 1000 µg/mL [2, 11] | zone of inhibition at 1000 µg/mL [3, 12] | zone of inhibition at 1000 µg/mL [4, 13] | zone of inhibition at 1000 µg/mL [5, 14] | zone of inhibition at 1000 µg/mL [6, 15] | zone of inhibition at 1000 µg/mL [7, 16] | zone of inhibition at 1000 µg/mL [8, 17] | zone of inhibition at 1000 µg/mL [9, 18] | diameter of the growth inhibition circle, Esc.(IFO-3301) [5, 19] | zone of inhibition at 1000 µg/mL ([1]; IFO4407, read-out: diameter of the growth inhibition circle, Asp.(IFO-4407)) | zone of inhibition at 1000 µg/mL ([2]; IFO13719, read-out: diameter of the growth inhibition circle, Bac.(IFO-13719)) | zone of inhibition at 1000 µg/mL ([3]; IFO0583, read-out: diameter of the growth inhibition circle, Can.(IFO-0583)) | zone of inhibition at 1000 µg/mL ([4]; IFO30340, read-out: diameter of the growth inhibition circle, Cor.(IFO-30340)) | zone of inhibition at 1000 µg/mL ([5]; IFO3301, read-out: diameter of the growth inhibition circle, Esc.(IFO-3301)) | zone of inhibition at 1000 µg/mL ([6]; IFO7784, read-out: diameter of the growth inhibition circle, Pen.(IFO-7784)) | zone of inhibition at 1000 µg/mL ([7]; IFO0210, read-out: diameter of the growth inhibition circle, Sac.(IFO-0210)) | zone of inhibition at 1000 µg/mL ([8]; IFO12732, read-out: diameter of the growth inhibition circle, Sta.(IFO-12732)) | zone of inhibition at 1000 µg/mL [9] |
| --- | --- | --- | --- | --- | --- | --- | --- | --- | --- | --- | --- | --- | --- | --- | --- | --- | --- | --- | --- |
| O=C(C#CI)Nc1cccc(Cl)c1 [Example 3, N-(3-Chlorophenyl)-3-iodopropiolamide] | 21 to 40 mm | 21 to 40 mm | 21 to 40 mm | > 41 mm | 9 to 20 mm | > 41 mm | 21 to 40 mm | 21 to 40 mm | > 41 mm |  |  |  |  |  |  |  |  |  |  |
| O=C(C#CI)Nc1ccc(Cl)cc1 [Example 24, N-(4-Chlorophenyl)-3-iodopropiolamide] | 21 to 40 mm | 9 to 20 mm | 21 to 40 mm | > 41 mm | 9 to 20 mm | > 41 mm | 21 to 40 mm | 21 to 40 mm | > 41 mm |  |  |  |  |  |  |  |  |  |  |
| CCCCN(CCCC)C(=O)C#CI [Example 18, N,N-Di(n-butyl)-3-iodopropiolamide] | 21 to 40 mm | 9 to 20 mm | 21 to 40 mm | > 41 mm |  | > 41 mm | 21 to 40 mm | 21 to 40 mm | > 41 mm | - |  |  |  |  |  |  |  |  |  |
| CC1COCC(C)N1C(=O)C#CI (stereo not drawn) [Example 20, 4-(3-Iodopropioloyl)-3,5-dimethylmorpholine] | 21 to 40 mm | 9 to 20 mm | 9 to 20 mm | > 41 mm |  | > 41 mm | 21 to 40 mm | 21 to 40 mm | > 41 mm | - |  |  |  |  |  |  |  |  |  |
| O=C(C#CI)NCCc1ccccc1 [Example 16, N-(2-Phenylethyl)-3-iodopropiolamide] | 21 to 40 mm | 21 to 40 mm | 21 to 40 mm | > 41 mm | 9 to 20 mm | > 41 mm | > 41 mm | 21 to 40 mm | > 41 mm |  |  |  |  |  |  |  |  |  |  |
| O=C(C#CI)N1CCCCC1 [Example 19, 1-(3-Iodopropioloyl)piperidine] | 21 to 40 mm | 21 to 40 mm | 21 to 40 mm | > 41 mm | 9 to 20 mm | > 41 mm | 21 to 40 mm | 21 to 40 mm | > 41 mm |  |  |  |  |  |  |  |  |  |  |
| O=C(C#CI)Nc1cccc(F)c1 [Example 17, N-(3-Fluorophenyl)-3-iodopropiolamide] | 21 to 40 mm | 21 to 40 mm | 21 to 40 mm | > 41 mm | 9 to 20 mm | > 41 mm | 21 to 40 mm | 21 to 40 mm | > 41 mm |  |  |  |  |  |  |  |  |  |  |
| C=CCNC(=O)C#CI [Example 23, N-Allyl-3-iodopropiolamide] |  |  |  |  |  |  |  |  |  |  | 21 to 40 mm | 9 to 20 mm | 21 to 40 mm | > 41 mm | 9 to 20 mm | > 41 mm | 21 to 40 mm | 21 to 40 mm | > 41 mm |
| O=C(C#CI)Nc1ccc(Cl)cc1Cl [Example 25, N-(2,4-Dichlorophenyl)-3-iodopropiolamide] | 21 to 40 mm | 9 to 20 mm | 21 to 40 mm | > 41 mm | 9 to 20 mm | > 41 mm | 21 to 40 mm | 21 to 40 mm | > 41 mm |  |  |  |  |  |  |  |  |  |  |
| O=C(C#CI)NC1CCCCC1 [Example 22, N-Cyclohexyl-3-iodopropiolamide] | 21 to 40 mm | 9 to 20 mm | 21 to 40 mm | > 41 mm | 9 to 20 mm | > 41 mm | 21 to 40 mm | 21 to 40 mm | > 41 mm |  |  |  |  |  |  |  |  |  |  |
| O=C(C#CI)N1CCN(c2ccccc2)CC1 [Example 21, 1-(3-Iodopropioloyl)-4-phenylpiperazine] | 21 to 40 mm | 9 to 20 mm | 21 to 40 mm | > 41 mm |  | > 41 mm | 21 to 40 mm | 21 to 40 mm | > 41 mm | - |  |  |  |  |  |  |  |  |  |
| O=C(C#CI)Nc1cccc(C(F)(F)F)c1 [Example 26, N-(3-Trifluoromethylphenyl)-3-iodopropiolamide] | 21 to 40 mm | 9 to 20 mm | 21 to 40 mm | > 41 mm | 9 to 20 mm | > 41 mm | 21 to 40 mm | 21 to 40 mm | 21 to 40 mm |  |  |  |  |  |  |  |  |  |  |
